Assay [1] concerns the target His6-ERα298-554 WT (ERα ligand-binding domain) (Homo sapiens (Human), UniProt P03372). Nature of the assay: Test A: biochemical antagonist activity, LanthaScreen TR-FRET ERα coactivator assay, WT. The conditions noted are these: read-out: Antagonism WT IC50. Summed up:
(§1)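 Compounds were added to receptor LBD (0.5 nM), terbium-labelled His6 antibody (0.5 nM), PGC1a coactivator peptide (250 nM) and estradiol at 3 nM or 10 nM. After incubating overnight at room temperature, the 520:495 nm ratio gave IC50 values by four-parameter logistic regression.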
For orientation: TR-FRET usually uses a lanthanide donor and a delayed reading to cut background.

The target in assay [2] is His6-ERα298-554 D538G mutant (ERα ligand-binding domain) (Homo sapiens (Human), UniProt P03372, D538G). Nature of the assay: Test A: biochemical antagonist activity, LanthaScreen TR-FRET ERα coactivator assay, D538G mutant. The conditions noted are these: read-out: Antagonism D538G IC50. Summed up: as §1
In assay [3] the target is His6-ERα298-554 Y537S mutant (ERα ligand-binding domain) (Homo sapiens (Human), UniProt P03372, Y537S). Nature of the assay: Test A: biochemical antagonist activity, LanthaScreen TR-FRET ERα coactivator assay, Y537S mutant. The conditions noted are these: read-out: Antagonism Y537S IC50. Summed up:
as §1

Assay [4] deals with MCF7 cells (breast tumor cells) WT. Kind of assay: Test B: cell proliferation/viability assay (CellTiter-Glo) on MCF7 WT. It is filed as cell-based. The conditions noted are these: 7 days of compound exposure. Summed up:
(§2)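 MCF7 WT / ER mutant lines (estradiol-independent, Tyr537Ser or Asp538Gly); stripped-serum, phenol red-free MEM; 9 pt 1:5 dil, 3-0.000001 μM final; 7 d; CellTiter-Glo RLU → % viability vs untreated, background-subtracted.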
A general note: In ATP-based viability assays light output follows the ATP content of the culture.

Assay [5] concerns MCF7 cells expressing mutant estrogen receptor Tyr 537 Ser. Kind of assay: Test B: cell proliferation/viability assay (CellTiter-Glo) on MCF7 Tyr 537 Ser mutant. The format is cell-based. The conditions noted are these: MCF7 cells expressing ER Tyr 537 Ser mutant, 7 days of compound exposure, read-out: proliferation MCF7 Y537S IC50. In short, it runs like this: as §2
Assay [6] concerns MCF7 cells expressing mutant estrogen receptor Asp 538 Gly. Nature of the assay: Test B: cell proliferation/viability assay (CellTiter-Glo) on MCF7 Asp 538 Gly mutant. It is filed as cell-based. The conditions noted are these: MCF7 cells expressing ER Asp 538 Gly mutant, 7 days of compound exposure, read-out: proliferation MCF7 D538G IC50. In short, it runs like this:
as §2

For a further assay, the target named is ERα in MCF7 cells (Homo sapiens (Human), UniProt P03372). Kind of assay: Test C: estrogen receptor degradation activity, ERα in cell western assay in MCF7 cells. The format is cell-based. The conditions noted are these: for DC50: 4 hours post compound addition, ERα in cell western, read-out: Degradation IC50; for % Degradation at 3 μM: 4 hours, relative to fulvestrant. In short, it runs like this:
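Cells seeded in stripped-serum medium are dosed the next day across a nine-concentration series (3 down to 0.000018 μM). Four hours later they are fixed, blocked, probed overnight with anti-ERα antibody, then labelled with an Alexa 488 secondary and a DNA dye before plate scanning.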

Where [7] appears, read: asterisk (*): protocol using 10 nM estradiol.

Where two headings read alike, the source gives them in different places. Some results are limits rather than exact numbers.

His6-ERα298-554 WT (ERα ligand-binding domain), sequence (P03372 298-554): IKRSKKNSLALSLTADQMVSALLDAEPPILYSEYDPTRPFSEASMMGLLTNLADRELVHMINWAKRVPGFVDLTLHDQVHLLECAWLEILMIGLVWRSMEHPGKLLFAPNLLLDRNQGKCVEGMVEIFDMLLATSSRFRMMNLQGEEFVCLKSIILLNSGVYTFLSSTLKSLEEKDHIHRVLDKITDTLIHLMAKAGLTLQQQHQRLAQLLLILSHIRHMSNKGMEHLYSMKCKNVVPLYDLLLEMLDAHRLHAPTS
His6-ERα298-554 D538G mutant (ERα ligand-binding domain), sequence (P03372 298-554 D538G): as the sequence (P03372 298-554) above, with D241G counted along it
His6-ERα298-554 Y537S mutant (ERα ligand-binding domain), sequence (P03372 298-554 Y537S): as the sequence (P03372 298-554) above, with Y240S counted along it
ERα in MCF7 cells, sequence (P03372 whole entry): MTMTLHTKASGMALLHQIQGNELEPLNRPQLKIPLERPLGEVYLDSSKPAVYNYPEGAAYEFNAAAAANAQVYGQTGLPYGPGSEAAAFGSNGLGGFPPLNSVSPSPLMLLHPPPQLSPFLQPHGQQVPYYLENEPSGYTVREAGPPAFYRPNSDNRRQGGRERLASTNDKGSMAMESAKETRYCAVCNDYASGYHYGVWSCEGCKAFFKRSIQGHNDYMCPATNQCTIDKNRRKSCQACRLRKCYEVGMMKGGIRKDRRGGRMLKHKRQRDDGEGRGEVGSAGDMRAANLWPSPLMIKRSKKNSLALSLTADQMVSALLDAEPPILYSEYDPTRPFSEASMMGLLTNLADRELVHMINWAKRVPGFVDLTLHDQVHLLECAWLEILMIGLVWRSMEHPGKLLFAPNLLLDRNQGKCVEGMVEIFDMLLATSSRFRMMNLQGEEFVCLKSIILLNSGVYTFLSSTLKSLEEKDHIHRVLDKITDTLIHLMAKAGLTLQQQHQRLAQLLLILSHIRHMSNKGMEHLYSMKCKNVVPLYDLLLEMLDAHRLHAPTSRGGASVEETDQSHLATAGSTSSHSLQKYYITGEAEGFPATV

Take `C[C@H]1Cc2cc(C3=C(c4ccc(O[C@H]5CCN(CCCF)C5)cc4)c4ccc(O)cc4SCC3)ccc2O1` [Example 204, 5-[4-[(3S)-1-(3-fluoropropyl)pyrrolidin-3-yl]oxyphenyl]-4-[(2S)-2-methyl-2,3-dihydrobenzofuran-5-yl]-2,3-dihydro-1-benzothiepin-8-ol]: the IC50 in assay [1] (setting [7]) came out at 24 nM; in assay [2] (setting [7]) it was 24 nM; in assay [3] (setting [7]), 15 nM; in assay [4] (Homo sapiens, MCF7, 168 h), 0.4 nM; in assay [5] (Homo sapiens, MCF7, 168 h) it was 5 nM; in assay [6] (Homo sapiens, MCF7, 168 h), 0.8 nM. The DC50 on ERα in MCF7 cells amounted to 0.6 nM. Further, at ERα in MCF7 cells, the “% Degradation at 3 μM” value came to 88%.

Take `CCOc1cc(Cl)ccc1C1=C(c2ccc(O[C@H]3CCN(CCCF)C3)cc2)c2ccc(O)cc2SC1` [Example 43, 3-(4-chloro-2-ethoxy-phenyl)-4-[4-[(3S)-1-(3-fluoropropyl)pyrrolidin-3-yl]oxyphenyl]-2H-thiochromen-7-ol]: the IC50 in assay [1] (setting [7]) amounted to 96 nM; in assay [2] (setting [7]) it was 1140 nM; in assay [3] (setting [7]), 673 nM; in assay [4] (Homo sapiens, MCF7, 168 h), 0.4 nM; in assay [5] (Homo sapiens, MCF7, 168 h), 11 nM; in assay [6] (Homo sapiens, MCF7, 168 h), 1 nM. For the same compound, the DC50 on ERα in MCF7 cells is 0.8 nM. Besides, at ERα in MCF7 cells, the “% Degradation at 3 μM” value is given as 97%.

In the case of `CC(C)Oc1ccc(C2=C(c3ccc(O[C@H]4CCN(CCCF)C4)cc3)c3ccc(O)cc3OCC2)cc1F` [Example 141, 4-(3-fluoro-4-isopropoxy-phenyl)-5-[4-[(3S)-1-(3-fluoropropyl)pyrrolidin-3-yl]oxyphenyl]-2,3-dihydro-1-benzoxepin-8-ol], the IC50 is 23 nM in assay [1] (protocol with 3 nM estradiol); 1500 nM in assay [2] (protocol with 3 nM estradiol); 1120 nM in assay [3] (protocol with 3 nM estradiol); 1 nM in assay [4] (Homo sapiens, MCF7, 168 h); 22 nM in assay [5] (Homo sapiens, MCF7, 168 h); 4 nM in assay [6] (Homo sapiens, MCF7, 168 h). The DC50 on ERα in MCF7 cells stood at 2 nM. In addition, on ERα in MCF7 cells, the “% Degradation at 3 μM” value was 87%.

`CCOc1ccc(C2=C(c3ccc(O[C@H]4CCN(CCCF)C4)cc3)c3ccc(O)cc3OCC2)c(F)c1` [Example 152, 4-(4-ethoxy-2-fluoro-phenyl)-5-[4-[(3S)-1-(3-fluoropropyl)pyrrolidin-3-yl]oxyphenyl]-2,3-dihydro-1-benzoxepin-8-ol]: the IC50 in assay [1] (setting [7]) turned out to be 9 nM; in assay [2] (setting [7]), 154 nM; in assay [3] (setting [7]) it was 107 nM; in assay [4] (Homo sapiens, MCF7, 168 h), 0.5 nM; in assay [5] (Homo sapiens, MCF7, 168 h), 4 nM; in assay [6] (Homo sapiens, MCF7, 168 h) it was 3 nM. Besides, on ERα in MCF7 cells, the DC50 was determined as 0.2 nM. For the same compound, the “% Degradation at 3 μM” value at ERα in MCF7 cells was 92%.

For the compound `CC1Cc2c([nH]c3ccccc23)C(c2c(F)cc(O[C@H]3CCN(CCCF)C3)cc2F)N1CC(C)(C)F` (single isomer, unassigned) [Example 256], the IC50 came to 6 nM in assay [1] (setting [7]); 120 nM in assay [2] (setting [7]); 101 nM in assay [3] (setting [7]); 0.1 nM in assay [4]; 2 nM in assay [5]; 0.7 nM in assay [6]. The DC50 on ERα in MCF7 cells is 0.2 nM. Also, the “% Degradation at 3 μM” value on ERα in MCF7 cells was found to be 91%.

`Cc1ccc(C2=C(c3ccc(O[C@H]4CCN(CCCF)C4)nc3)c3ccc(O)cc3SCC2)c(Cl)c1` [Example 206, 4-(2-chloro-4-methyl-phenyl)-5-[6-[(3S)-1-(3-fluoropropyl)pyrrolidin-3-yl]oxy-3-pyridyl]-2,3-dihydro-1-benzothiepin-8-ol]: the IC50 was 0.7 nM in assay [1] (setting [7]); 13 nM in assay [2] (setting [7]); 9 nM in assay [3] (setting [7]); 0.3 nM in assay [4] (Homo sapiens, MCF7, 168 h); 4 nM in assay [5] (Homo sapiens, MCF7, 168 h); 0.7 nM in assay [6] (Homo sapiens, MCF7, 168 h). In addition, the DC50 on ERα in MCF7 cells came out at 0.4 nM. Further, the “% Degradation at 3 μM” value at ERα in MCF7 cells is 85%.

Take `Oc1ccc2c(c1)SCCC(c1ccc(OC(F)F)cc1F)=C2c1ccc(O[C@H]2CCN(CCCF)C2)cc1` [Example 213, 4-[4-(difluoromethoxy)-2-fluoro-phenyl]-5-[4-[(3S)-1-(3-fluoropropyl)pyrrolidin-3-yl]oxyphenyl]-2,3-dihydro-1-benzothiepin-8-ol]: the IC50 in assay [1] (setting [7]) came to 4 nM; in assay [2] (setting [7]) it was 96 nM; in assay [3] (setting [7]) it was 55 nM; in assay [4] (Homo sapiens, MCF7, 168 h) it was 0.3 nM; in assay [5] (Homo sapiens, MCF7, 168 h), 2 nM; in assay [6] (Homo sapiens, MCF7, 168 h) it was 0.2 nM. In addition, the DC50 on ERα in MCF7 cells came to 0.9 nM. For the same compound, on ERα in MCF7 cells, the “% Degradation at 3 μM” value worked out at 86%.

Turning to `Cc1ccc(C2=C(c3ccc(O[C@H]4CCN(CCCF)C4)cc3)c3ccc(O)cc3SCC2)c(F)c1` [Example 164, 4-(2-fluoro-4-methyl-phenyl)-5-[4-[(3S)-1-(3-fluoropropyl)pyrrolidin-3-yl]oxyphenyl]-2,3-dihydro-1-benzothiepin-8-ol], the IC50 in assay [1] (protocol with 3 nM estradiol) worked out at 3 nM; in assay [2] (protocol with 3 nM estradiol), 13 nM; in assay [3] (protocol with 3 nM estradiol) it was 9 nM; in assay [4] (Homo sapiens, MCF7, 168 h), 0.6 nM; in assay [5] (Homo sapiens, MCF7, 168 h), 5 nM; in assay [6] (Homo sapiens, MCF7, 168 h) it was 0.6 nM. At ERα in MCF7 cells, the DC50 came to 0.5 nM. Further, on ERα in MCF7 cells, the “% Degradation at 3 μM” value turned out to be 91%.

`Oc1ccc2c(c1)OCCC(c1ccc(OC3CC3)cc1)=C2c1ccc(O[C@H]2CCN(CCCF)C2)cc1` [Example 149, 4-[4-(cyclopropoxy)phenyl]-5-[4-[(3S)-1-(3-fluoropropyl)pyrrolidin-3-yl]oxyphenyl]-2,3-dihydro-1-benzoxepin-8-ol]: the IC50 came to 23 nM in assay [1] (setting [7]); 303 nM in assay [2] (setting [7]); 289 nM in assay [3] (setting [7]); 0.5 nM in assay [4] (Homo sapiens, MCF7, 168 h); 12 nM in assay [5] (Homo sapiens, MCF7, 168 h); 2 nM in assay [6] (Homo sapiens, MCF7, 168 h). Besides, the DC50 at ERα in MCF7 cells was determined as 0.9 nM. Moreover, at ERα in MCF7 cells, the “% Degradation at 3 μM” value was 91%.

As to `Oc1ccc2c(c1F)OCCC(c1ccc3[nH]ccc3c1)=C2c1ccc(O[C@H]2CCN(CCCF)C2)cc1` [Example 113, 9-fluoro-5-[4-[(3S)-1-(3-fluoropropyl)pyrrolidin-3-yl]oxyphenyl]-4-(1H-indol-5-yl)-2,3-dihydro-1-benzoxepin-8-ol], the IC50 in assay [1] (protocol with 3 nM estradiol) came out at 6 nM; in assay [2] (protocol with 3 nM estradiol) it was 32 nM; in assay [3] (protocol with 3 nM estradiol), 19 nM; in assay [4] (Homo sapiens, MCF7, 168 h) it was 5 nM; in assay [5] (Homo sapiens, MCF7, 168 h) it was 31 nM; in assay [6] (Homo sapiens, MCF7, 168 h) it was 14 nM. On ERα in MCF7 cells, the DC50 was 0.7 nM. Also, the “% Degradation at 3 μM” value at ERα in MCF7 cells came out at 80%.

As for `COc1ccc(C2=C(c3ccc(O[C@H]4CCN(CCCF)C4)cc3)c3ccc(O)cc3SC2)cc1F` [Example 23, 3-(3-fluoro-4-methoxy-phenyl)-4-[4-[(3S)-1-(3-fluoropropyl)pyrrolidin-3-yl]oxyphenyl]-2H-thiochromen-7-ol], the IC50 was 50 nM in assay [1] (setting [7]); 803 nM in assay [2] (setting [7]); 678 nM in assay [3] (setting [7]); 7 nM in assay [4] (Homo sapiens, MCF7, 168 h); over 999 nM in assay [5] (Homo sapiens, MCF7, 168 h); 14 nM in assay [6] (Homo sapiens, MCF7, 168 h). In addition, the DC50 at ERα in MCF7 cells was 0.3 nM. For the same compound, the “% Degradation at 3 μM” value at ERα in MCF7 cells came out at 93%.

Take `[O-][S+]1CCC(c2ccc(OC(F)(F)F)cc2)=C(c2ccc(O[C@H]3CCN(CCCF)C3)cc2)c2ccc(O)cc21` (single isomer, unassigned) [Example 227]: the IC50 in assay [1] (setting [7]) came to 392 nM; in assay [2] (setting [7]) it was 3330 nM; in assay [3] (setting [7]) it was 3500 nM; in assay [4], 6 nM; in assay [5], 134 nM; in assay [6], 9 nM. In addition, at ERα in MCF7 cells, the DC50 stood at 4 nM. For the same compound, the “% Degradation at 3 μM” value on ERα in MCF7 cells is given as 90%.

Regarding `CC1Cc2cc(C3=C(c4ccc(O[C@H]5CCN(CCCF)C5)cc4)c4ccc(O)cc4SCC3)ccc2O1` (stereo partly drawn) [Example 197, 5-[4-[(3S)-1-(3-fluoropropyl)pyrrolidin-3-yl]oxyphenyl]-4-(2-methyl-2,3-dihydrobenzofuran-5-yl)-2,3-dihydro-1-benzothiepin-8-ol], the IC50 in assay [1] (setting [7]) is 1 nM; in assay [2] (setting [7]), 20 nM; in assay [3] (setting [7]), 13 nM; in assay [4] (Homo sapiens, MCF7, 168 h) it was 0.3 nM; in assay [5] (Homo sapiens, MCF7, 168 h), 5 nM; in assay [6] (Homo sapiens, MCF7, 168 h), 0.6 nM. For the same compound, the DC50 at ERα in MCF7 cells was 0.2 nM. The “% Degradation at 3 μM” value on ERα in MCF7 cells amounted to 88%.
